Active and inactive are the calls of the source. The calls are words filed in the database; no cut-off is given here.
Key:
[1] = Apparent permeability across apical to basolateral side in human Caco2 cells at 10 uM after 15 to 90 mins by LC-ESI-MS/MS analysis; type: ADME, cell-based; settings: Caco-2
[2] = Apparent permeability across basolateral to apical side in human Caco2 cells at 10 uM after 15 to 90 mins by LC-ESI-MS/MS analysis; type: ADME, cell-based; settings: Caco-2
[3] = molecular target: T1, Bifunctional epoxide hydrolase 2 (Homo sapiens) (UniProt P34913); experiment: Inhibition of N-terminal His-tagged recombinant human soluble epoxide hydrolase (2 to 555 residues) expressed in Sf21 insect cells at 10 uM using as 14,15-EET as substrate after 10 mins by reversed-phase HPLC assay relative to control
T1 sequence (whole entry): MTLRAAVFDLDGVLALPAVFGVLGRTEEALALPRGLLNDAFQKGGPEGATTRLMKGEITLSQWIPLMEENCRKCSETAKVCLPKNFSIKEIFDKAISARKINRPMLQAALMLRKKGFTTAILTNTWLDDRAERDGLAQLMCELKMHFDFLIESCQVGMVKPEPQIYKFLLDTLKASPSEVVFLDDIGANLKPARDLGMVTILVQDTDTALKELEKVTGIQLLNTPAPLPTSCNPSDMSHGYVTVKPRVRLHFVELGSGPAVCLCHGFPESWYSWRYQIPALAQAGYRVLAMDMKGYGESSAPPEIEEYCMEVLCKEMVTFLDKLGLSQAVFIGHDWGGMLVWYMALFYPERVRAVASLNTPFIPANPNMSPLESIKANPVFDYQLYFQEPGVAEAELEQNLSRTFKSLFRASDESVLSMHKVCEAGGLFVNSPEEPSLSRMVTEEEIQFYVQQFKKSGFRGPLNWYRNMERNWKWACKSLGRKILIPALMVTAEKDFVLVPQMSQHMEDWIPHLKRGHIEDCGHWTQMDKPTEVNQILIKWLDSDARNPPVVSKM

[4] = molecular target: T1, Bifunctional epoxide hydrolase 2 (Homo sapiens); settings: Sf21, at 1 µM
Description: Inhibition of N-terminal His-tagged recombinant human soluble epoxide hydrolase (2 to 555 residues) expressed in Sf21 insect cells at 1 uM using as 14,15-EET as substrate after 10 mins by reversed-phase HPLC assay relative to control

[5] = Negative chronotropic activity in Wistar rat neonatal cardiomyocytes assessed as change in basal beating rate after 7 mins by inverted microscopic method; type: functional
[6] = molecular target: T2, Cytochrome P450 2J2 (Homo sapiens, UniProt P51589); experiment: Inhibition of recombinant human CYP2J2 expressed in baculovirus infected insect cells co-expressing NADPH-CYP reductase and cytochrome b5 assessed as reduction in CYP2J2-mediated EPA epoxidation by measuring sum of EEQ and DiHETEs level at 1 to 50 uM using EPA as substrate preincubated for 5 mins followed by NADPH addition and measured after 15 mins by LCMS/MS analysis; type: ADME; settings: recombinant enzyme, 0.25 h
T2 sequence (P51589 whole entry): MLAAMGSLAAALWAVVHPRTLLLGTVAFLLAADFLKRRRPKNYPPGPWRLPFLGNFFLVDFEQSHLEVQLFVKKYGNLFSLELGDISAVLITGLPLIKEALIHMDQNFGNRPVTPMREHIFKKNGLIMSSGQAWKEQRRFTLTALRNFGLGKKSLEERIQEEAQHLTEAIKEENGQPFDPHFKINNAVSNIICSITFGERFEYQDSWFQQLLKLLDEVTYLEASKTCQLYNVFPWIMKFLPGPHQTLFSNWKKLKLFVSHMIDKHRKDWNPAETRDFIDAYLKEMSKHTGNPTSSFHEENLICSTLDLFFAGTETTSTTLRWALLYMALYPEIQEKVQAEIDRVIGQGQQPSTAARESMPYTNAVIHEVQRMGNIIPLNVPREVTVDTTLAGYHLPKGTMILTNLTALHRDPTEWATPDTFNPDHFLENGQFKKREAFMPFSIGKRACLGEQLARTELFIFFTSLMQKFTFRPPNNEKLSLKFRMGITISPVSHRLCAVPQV

[7] = Stability in human plasma assessed as compound remaining at 10 uM measured up to 60 mins by LC-ESI-MS/MS analysis; type: ADME, cell-free; settings: read-out: Stability
[8] = Aqueous solubility of the compound in pH 7.4 potassium phosphate buffer at 2 mg after 1 to 24 hrs by RP-HPLC method; type: physicochemical
[9] = test system: Cytochrome P450; experiment: Drug metabolism in human liver microsomes assessed as CYP450-mediated formation of [+O] metabolites at 1 uM after 60 mins in absence of NADPH by LC-MS analysis; type: ADME; settings: 1 h
[10] = molecular target: T3, Epoxide hydrolase 1/Bifunctional epoxide hydrolase 2 (Homo sapiens, UniProt P07099+P34913); experiment: Drug metabolism in human liver microsomes assessed as microsomal/soluble epoxide hydrolase mediated formation of [+O + H2O] metabolites at 1 uM after 60 mins in absence of NADPH by LC-MS analysis; type: ADME; settings: 1 h
T3 sequence (P07099 whole entry): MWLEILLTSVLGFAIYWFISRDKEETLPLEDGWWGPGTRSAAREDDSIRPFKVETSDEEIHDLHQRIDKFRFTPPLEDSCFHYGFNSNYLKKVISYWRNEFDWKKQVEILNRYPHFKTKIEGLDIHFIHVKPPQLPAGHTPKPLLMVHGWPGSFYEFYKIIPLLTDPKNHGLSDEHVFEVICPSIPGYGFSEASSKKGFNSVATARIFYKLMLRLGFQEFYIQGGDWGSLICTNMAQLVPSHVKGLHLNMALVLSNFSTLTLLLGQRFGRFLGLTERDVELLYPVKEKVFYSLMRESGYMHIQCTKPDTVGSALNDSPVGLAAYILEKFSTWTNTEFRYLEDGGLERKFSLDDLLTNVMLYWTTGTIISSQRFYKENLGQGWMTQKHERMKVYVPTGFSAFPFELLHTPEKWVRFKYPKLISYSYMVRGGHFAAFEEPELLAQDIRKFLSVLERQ
T3 sequence (P34913 whole entry): T1 sequence (whole entry)

[11] = test system: Cytochrome P450; experiment: Drug metabolism in human liver microsomes assessed as CYP450-mediated formation of [+O] metabolites at 1 uM after 60 mins in presence of NADPH by LC-MS analysis; type: ADME; settings: 1 h
[12] = molecular target: T3, Epoxide hydrolase 1/Bifunctional epoxide hydrolase 2; experiment: Drug metabolism in human liver microsomes assessed as microsomal/soluble epoxide hydrolase mediated formation of [+O + H2O] metabolites at 1 uM after 60 mins in presence of NADPH by LC-MS analysis; type: ADME; settings: 1 h
[13] = Negative chronotropic activity in Wistar rat neonatal cardiomyocytes assessed as changes to basal beating rate after 7 mins by inverted microscopic method; type: functional
[14] = Negative chronotropic activity in Wistar rat neonatal cardiomyocytes assessed as decrease in basal beating rate after 7 mins by inverted microscopic method; type: functional, cell-based
[15] = test system: Rattus norvegicus; experiment: Antiarrhythmic activity in Wistar rat model of coronary artery ligation-induced myocardial infarction assessed as reduction in total time on development of ventricular tachycardia at 100 ug, iv administered via bolus pretreated for 10 mins followed by coronary artery ligation measured for 45 mins; type: functional, organism-based
[16] = test system: Rattus norvegicus; experiment: Antiarrhythmic activity in Wistar rat model of coronary artery ligation-induced myocardial infarction assessed as reduction in disease severity score at 100 ug, iv administered via bolus pretreated for 10 mins followed by left anterior descending artery occlusion measured for 45 mins; type: functional, organism-based
[17] = Half life in human hepatocytes at 1 uM measured up to 180 mins by LC-ESI-MS/MS analysis; type: ADME, cell-based, Hepatocyte
[18] = Intrinsic clearance in human hepatocytes assessed per million cells at 1 uM measured up to 180 mins by LC-ESI-MS/MS analysis; type: ADME, cell-based, Hepatocyte; settings: read-out: CLH

Row | SMILES | inhibition [3] | inhibition [4] | Activity [5] | other results
1 | C[C@]12CC[C@H]3[C@@H](CCC4=CC(=O)CC[C@@]43C)[C@@H]1CC[C@@H]2O [TESTOSTERONE] |  |  |  | Papp A→B at 10 µM [1]: 32.5 ×10⁻⁶ cm/s; Papp B→A at 10 µM [2]: 58.9 ×10⁻⁶ cm/s
2 | CNC(=O)C(=O)NCCCCc1ccccc1CCCCCCCCCP(=O)([O-])[O-].[Na+].[Na+] | 1.8% | 1.3% | -21.8 bpm | 
3 | CCNC(=O)NCCCC/C=C\CCCCCCCCCC(=O)O | 23.4% | 4.7% |  | 
4 | CCCCc1oc2ccccc2c1C(=O)c1cc(I)c(OCCN(CC)CC)c(I)c1 [AMIODARONE] |  |  |  | inhibition (INH) [6]: Active
5 | CCCCc1oc2ccc(NS(C)(=O)=O)cc2c1C(=O)c1ccc(OCCCN(CCCC)CCCC)cc1 [DRONEDARONE] |  |  |  | inhibition (INH) [6]: Active
6 | CNC(=O)C(=O)NCCCC/C=C\CCCCCCCCCOc1cccc2sc(NC(C)=O)nc12 | 61.8% | 17% | -21.1 bpm | 
7 | CC(C)[N+](C)(CCOC(=O)C1c2ccccc2Oc2ccccc21)C(C)C [PROPANTHELINE BROMIDE] |  |  |  | remaining at 1 h, 10 µM [7]: 2.6%
8 | CNC(=O)C(=O)NCCCC/C=C\CCCCCCCCCP(=O)(OCOC(=O)C(C)(C)C)OCOC(=O)C(C)(C)C | 38.4% | 5.1% | -23.5 bpm | 
9 | CNC(=O)C(=O)NCCCC/C=C\CCCCCCCCCC(=O)N[C@@H](C)C(=O)[O-].[Na+] | 18.7% | 1.9% | -1.1 bpm | 
10 | CNC(=O)C(=O)NCCCC/C=C\CCCCCCCCCC1=NO[S+]([O-])N1 (configuration not stated) | 10% | -0.2% | -24.3 bpm | 
11 | CNC(=O)C(=O)NCCCC/C=C\CCCCCCCCCC(=O)NS(=O)(=O)c1ccccc1 | 1.1% | -3.2% | -23.1 bpm | 
12 | CNC(=O)C(=O)NCCCC/C=C\CCCCCCCCCP(=O)(OC)OC | 6.4% | 5% | -18 bpm | 
13 | CCNC(=O)NCCCC/C=C\CCCCCCCCCC(=O)OCCOCCOCCO | 76.6% | 26.5% | -19.8 bpm | solubility [8]: Soluble
14 | CNC(=O)C(=O)NCCCc1ccccc1CCCCCCP(=O)([O-])[O-].[Na+].[Na+] | -2.2% | -1% | -24.5 bpm | 
15 | CCCCCCCC/C=C\CCCCCCCC(=O)O [OLEIC ACID] |  |  |  | Drug metabolism [9]: Metabolite_Notdetected; Drug metabolism [10]: Metabolite_Notdetected; Drug metabolism [11]: Metabolite_Detected; Drug metabolism [12]: Metabolite_Detected
16 | CNC(=O)C(=O)NCCCC/C=C\CCCCCCCCCS(=O)(=O)[O-].[Na+] | 0% | 5.2% | -20.7 bpm | 
17 | CNC(=O)C(=O)NCCCC/C=C\CCCCCCCCCc1noc(=O)[nH]1 | -9.2% | -5% | -11 bpm | 
18 | CCNC(=O)NCCCC/C=C\CCCCCCCOCC(=O)O | 10.4% | 3.6% | -38 bpm | 
19 | CNC(=O)C(=O)NCCCC/C=C\CCCCCCCCCP(=O)(OC)OCOC(=O)C(C)(C)C (configuration not stated) | 18.6% | 5.4% | -16.2 bpm | 
20 | CNC(=O)C(=O)NCCCC/C=C\CCCCCCCCCSc1ccccc1O | 1.5% | 0.4% | -7.5 bpm | 
21 | CCNC(=O)NCCCC/C=C\CCCCCCCCCC(=O)NCC(=O)[O-].[Na+] | 19.2% | 0.9% | -21.1 bpm | solubility [8]: Soluble
22 | CNC(=O)C(=O)NCCCC/C=C\CCCCCCCCCP(=O)([O-])[O-].[Na+].[Na+] | 37.7% | 6.8% | -21.3 bpm | 
23 | CC[C@H]1OC(=O)[C@H](C)[C@@H](O[C@H]2C[C@@](C)(OC)[C@@H](O)[C@H](C)O2)[C@H](C)[C@@H](O[C@@H]2O[C@H](C)C[C@H](N(C)C)[C@H]2O)[C@](C)(O)C[C@@H](C)C(=O)[C@H](C)[C@@H](O)[C@]1(C)O [ERYTHROMYCIN] |  |  |  | Papp A→B at 10 µM [1]: 0.35 ×10⁻⁶ cm/s; Papp B→A at 10 µM [2]: 10.4 ×10⁻⁶ cm/s
24 | CC[C@@H]1O[C@@H]1C/C=C\C/C=C\C/C=C\C/C=C\CCCC(=O)O |  |  |  | Emax [13]: 28.9 bpm; EC50 [14]: 12 nM
25 | CNC(=O)C(=O)NCCCC/C=C\CCCCCCCCCC(=O)N(C)CC(=O)[O-].[Na+] | 17.8% | -0.6% | -15.6 bpm | 
26 | CNC(=O)C(=O)NCCCC/C=C\CCCCCCCOCC(=O)OCCOCCOCCO | 1.9% | 1.3% | -25.2 bpm | Activity [15]: Active; solubility [8]: Soluble; Activity [16]: Active
27 | CC(C)(C)c1ccc(C(O)CCCN2CCC(C(O)(c3ccccc3)c3ccccc3)CC2)cc1 (configuration not stated) [TERFENADINE] |  |  |  | inhibition (INH) [6]: Active
28 | CCOc1ccc2ccc(=O)oc2c1 [ETHOXYCOUMARIN] |  |  |  | half-life at 1 µM [17]: 20.5 min; hepatocyte CLint at 1 µM [18]: 43.2 µL/min/1e6 cells

From ChEMBL document CHEMBL4414645, “Development of Robust 17(R),18(S)-Epoxyeicosatetraenoic Acid (17,18-EEQ) Analogues as Potential Clinical Antiarrhythmic Agents” (J Med Chem, 2019)
